We go through one compound from US20140357688A1, “METHOD FOR INHIBITING EZH2 EXPRESSION IN BREAST CANCER CELLS” (Yung Shin Pharm. Ind. Co., Ltd., priority 2013, published 2014).

Format in all cases: cell-based, human
The test system of one assay is EZH2 mRNA. Nature of the assay: Quantitative real-time RT-PCR of EZH2 mRNA. The following applies: 3 μM YC-1, 3 or 6 h; less inhibition than protein levels. The protocol:
Cells were treated with 3 μM YC-1 for 3 or 6 h. Cells were collected for the detection of EZH2 mRNA expression with quantitative real-time RT-PCR described in Materials and Methods.
Total RNA was isolated from MDA-MB-468 cells treated with YC-1 and extracted using TRIzol® Reagent (Invitrogen). cDNA strain was reverse transcribed by oligo dT(15) using M-MLV reverse transcriptase (Invitrogen) according to the manufacturer's instructions. Quantitative real-time RT-PCR analysis was performed by a LightCycler® 480 II RTPCR system (Roche Applied Sciences, Manheim, Germany) using Fast Start DNA Master Plus SYBR Green I kit (Roche Applied Sciences). PCR primers were as follows: human EZH2 (NM_004456.4) 5′-[…]-3′ (Forward), 5′-[…]-3′ (Reverse); human GAPDH (NM_002046.3) 5′-[…]-3′ (Forward); 5′-[…]-3′ (Reverse). The expression level of EZH2 mRNA was normalized against the level of GAPDH mRNA in the same sample.

For another assay, the system named is H3K27me3. The assay can be described thus: Western blot of H3K27me3 in MDA-MB-468 cells. The protocol:
(§1) (A)(B) Cells were treated with indicated concentration of YC-1 for 24 h (A) or 3 μM of YC-1 for indicated time (B). Cells were harvested and performed with western blotting analysis. […] The levels of protein expression were quantitated and shown under blots. (C) Cells were transfected with EZH2 shRNA for 0, 1, 2, 3, and 4 days and collected for determination of cell viability (left) and protein expression (right). (D)(E) After 4 days of EZH2 knockdown, cells were incubated with 3 μM YC-1 for 4 h and detected cell viability (D) and protein contents (E). (F) Tumor specimens were isolated and protein was extracted for western blot analysis.
(§2) Cells were lysed in PBS containing proteinase inhibitor and phosphatase inhibitors and sonication. Protein concentration was measured using the Bio-Rad protein assay kit (Bio-Rad Laboratories, Hercules, Calif., USA). Lysate protein was separated by electrophoresis of SDS-PAGE and transferred to Immobilon P membrane (EMD Millipore). The membranes were incubated with appropriate primary antibodies and horseradish peroxidase-conjugated secondary antibodies (EMD Millipore). The signaling was visualized using Chemiluminescence substrate kit (EMD Millipore) and collected by the Luminesence image analyzer, LAS4000 (Fuji Photo Film Co., Tokyo, Japan). The band intensities were analyzed and quantified by the Multi Gauge software (Fuji Photo Film).

A further assay has as its system Ring1B. The assay can be described thus: Western blot of PRC1 components in MDA-MB-468 cells. The protocol: as §1, §2
A further assay relates to Bmi1. Described as above. The protocol:
as §1, §2

The test system of the next assay is Ring1A. The assay is described as above. As for the experimental part:
as §1, §2

For another assay, the system named is MCF-10A. The assay can be described thus: MTT cell viability assay. Particulars: normal mammary epithelial cells MCF-10A. The protocol:
(§3) (A) Cells were treated with indicated concentration of YC-1 for 6, 24, and 48 h. Cell viability was determined by MTT method. (B) MDA-MB-468 cells were treated with 3 μM YC-1 for 0, 6, and 12 h, and then stained with fluorescence diacetate (FDA) and propidium iodide (PI). Cell morphology was assessed by fluorescence microscopy with magnification ×20 (upper 3 rows) or ×40 (lowest row). (C) MDA-MB-468 cells were treated with 3 μM YC-1 for 24 h, cells were lysed and subjected to western blot analysis described in Materials and Methods. β-actin is a loading control. Blots were representative of results from three independent experiments. (D) Cells were treated with vehicle (DMSO, as control) or 3 μM YC-1 for 6 h. The cell cycles were analyzed by flow cytometry. (E) Cells were treated with indicated concentration of YC-1 and then performed with clonogenic assay.
(§4) Human breast cancer cells, MDA-MB-468, MDA-MB-157, MDA-MB-231, MDA-MB-453, and Hs578T, and immortalized mammary epithelial cell lines, 184A1 and MCF-10A, were obtained from American Type Culture Collection (Manassas, Va., USA). MDA-MB-468, MDA-MB-157, MDA-MB-231, and MDA-MB-453 were cultured in DMEM/F12 medium supplemented with 10% FBS, 100 U/ml penicillin, and 100 μg/ml streptomycin. Hs578T was cultured in RPMI 1640 medium containing 10% FBS, 2 mM L-glutamine, 100 U/ml penicillin, and 100 μg/ml streptomycin. 184A1 and MCF-10A were cultured in DMEM/F12 medium supplemented with 5% horse serum, 0.5 μg/ml hydrocortisone, 10 μg/ml insulin, 20 ng/ml epidermal growth factor, 0.1 μg/ml cholera enterotoxin, 2 mM L-glutamine, 100 U/ml penicillin, and 100 μg/ml streptomycin. All cells were maintained in a humidified incubator containing 5% CO2. For hypoxia treatment, cells were incubated in a chamber flushed with 1% 02, 5% CO2, and 94% N2 at 37° C.
(§5) Cell viability was measured by 3-(4,5-Dimethyl-2-thiazolyl)2,5-diphenyl-2H-tetrazolium bromide (MTT) assay.

For another assay, the system named is 184A1. The assay can be described thus: MTT cell viability assay. The following applies: normal mammary epithelial cells 184A1. As for the experimental part:
as §3, §4, §5

The next assay has as its system MDA-MB-468. Nature of the assay: MTT cell viability assay. The following applies: Homo sapiens, MDA-MB-468. As for the experimental part:
as §3, §4, §5

Another assay concerns MDA-MB-231. Nature of the assay: MTT cell viability assay. The following applies: triple negative breast cancer cell line MDA-MB-231. The protocol:
as §4, §5

The test system of the next assay is MDA-MB-453. The assay can be described thus: MTT cell viability assay. As for the experimental part:
as §4, §5

For a further assay, the system named is Hs578T. Nature of the assay: MTT cell viability assay. As for the experimental part: as §4, §5

Take `OCc1ccc(-c2nn(Cc3ccccc3)c3ccccc23)o1` [YC-1, 3-(5′-hydroxymethyl-2′-furyl)-1-benzyl indazole]: the “mRNA expression of EZH2” value in the assay with EZH2 mRNA is reported as “inhibitory effect”. Moreover, the H3K27me3 level result in the assay with H3K27me3 is “kept unchanged”. In addition, the Ring1B protein result with Ring1B is reported as “decreased”. In the assay with Bmi1, the Bmi1 protein result is recorded as “decreased”. The Ring1A protein result in the assay on Ring1A is given as “decreased”. For the same compound, the “effect on cell viability” value in the assay with MCF-10A was “no effect”; in the assay on 184A1 it was “no effect”; with MDA-MB-231, “slight inhibitory effect”; in the assay with MDA-MB-453, “no effect”; in the assay with Hs578T, “no effect”. The IC50 in the assay with MDA-MB-468 (24 h-incubation) was 620 ± 20 nM; in the assay on MDA-MB-468 (48 h-incubation), 290 ± 20 nM.
